Source: ChEMBL document CHEMBL4814070 (Eur J Med Chem, 2021)
Activity calls are given as the source filed them. The rule behind the calls is not given here.

Columns and labels:
[1] = target: T1, Glutamate NMDA receptor; GRIN1/GRIN2A (Homo sapiens, UniProt Q05586+Q12879); assay: Inhibition of human GluN1a/GluN2A receptor expressed in HEK293 cells assessed as relative inhibition of glycine/glutamate-induced current at 100 uM measured at +40 mV holding potential by whole-cell patch clamp method; type: cell-based
[2] = target: Acetylcholinesterase (Homo sapiens, UniProt P22303)
Description: Inhibition of human recombinant AChE assessed as reduction in cholinesterase activity using acetylthiocholine iodide as substrate by Ellman's method

[3] = target: T2, Cholinesterase (Homo sapiens, UniProt P06276)
Description: Inhibition of human plasmatic BuChE assessed as reduction in cholinesterase activity by Ellman's method

[4] = target: T1, Glutamate NMDA receptor; GRIN1/GRIN2A
Description: Inhibition of human GluN1a/GluN2A receptor expressed in HEK293 cells assessed as inhibition of glycine/glutamate-induced current measured at -60 mV holding potential by whole-cell patch clamp method

[5] = target: T3, Glutamate NMDA receptor; GRIN1/GRIN2B (Homo sapiens, UniProt Q05586+Q13224)
Description: Inhibition of human GluN1a/GluN2B receptor expressed in HEK293 cells assessed as inhibition of glycine/glutamate-induced current measured at -60 mV holding potential by whole-cell patch clamp method

[6] = Ratio of drug level in brain to plasma in ICR mouse at 5 mg/kg, ip measured after 15 mins by HPLC-MS analysis; type: ADME, organism-based; conditions: brain and plasma, read-out: BBR
[7] = Drug uptake in ICR mouse plasma at 5 mg/kg, ip measured after 15 mins by HPLC-MS analysis; type: ADME, organism-based
[8] = Toxicity in Wistar rat assessed as prepulse inhibition of acoustic startle response at 1 to 5 mg/kg, ip measured for 10 mins by open field test relative to control; type: organism-based; conditions: in vivo, dose 1-5 mg/kg
[9] = Drug uptake in ICR mouse brain at 5 mg/kg, ip measured after 15 mins by HPLC-MS analysis; type: ADME, organism-based; conditions: read-out: Drug uptake
[10] = Drug uptake in ICR mouse plasma at 5 mg/kg, ip measured after 60 mins by HPLC-MS analysis; type: ADME, organism-based
[11] = Drug uptake in ICR mouse brain at 5 mg/kg, ip measured after 60 mins by HPLC-MS analysis; type: ADME, organism-based; conditions: read-out: Drug uptake
[12] = system: Rattus norvegicus; assay: Effect on spontaneous locomotory activity in Wistar rat at 1 mg/kg, ip measured for 10 mins by open field test; type: functional, organism-based
[13] = system: Rattus norvegicus; assay: Reduction in total distance travelled in Wistar rat at 5 mg/kg, ip measured for 10 mins by open field test relative to control; type: functional, organism-based
[14] = target: T1, Glutamate NMDA receptor; GRIN1/GRIN2A; remark: listed apart in the source
Description: Inhibition of human GluN1a/GluN2A receptor expressed in HEK293 cells assessed as relative inhibition of glycine/glutamate-induced current measured at +40 mV holding potential by whole-cell patch clamp method

[15] = target: T3, Glutamate NMDA receptor; GRIN1/GRIN2B; remark: listed apart in the source
Description: Inhibition of human GluN1a/GluN2B receptor expressed in HEK293 cells assessed as relative inhibition of glycine/glutamate-induced current measured at +40 mV holding potential by whole-cell patch clamp method

[16] = system: Rattus norvegicus; assay: Effect on spontaneous locomotory activity in Wistar rat at 5 mg/kg, ip measured for 10 mins by open field test; type: functional, organism-based
[17] = Toxicity in Wistar rat assessed as hyperlocomotion at 5 mg/kg, ip measured for 10 mins by open field test relative to control; type: organism-based; conditions: in vivo
[18] = target: T2, Cholinesterase; assay: Inhibition of human plasmatic BuChE assessed as reduction in cholinesterase activity at 100 uM by Ellman's method
[19] = Toxicity in Wistar rat assessed as prepulse inhibition of acoustic startle response at 0.3 mg/kg, ip measured for 10 mins by open field test relative to control; type: organism-based; conditions: in vivo

Chain of Acetylcholinesterase (P22303 whole entry): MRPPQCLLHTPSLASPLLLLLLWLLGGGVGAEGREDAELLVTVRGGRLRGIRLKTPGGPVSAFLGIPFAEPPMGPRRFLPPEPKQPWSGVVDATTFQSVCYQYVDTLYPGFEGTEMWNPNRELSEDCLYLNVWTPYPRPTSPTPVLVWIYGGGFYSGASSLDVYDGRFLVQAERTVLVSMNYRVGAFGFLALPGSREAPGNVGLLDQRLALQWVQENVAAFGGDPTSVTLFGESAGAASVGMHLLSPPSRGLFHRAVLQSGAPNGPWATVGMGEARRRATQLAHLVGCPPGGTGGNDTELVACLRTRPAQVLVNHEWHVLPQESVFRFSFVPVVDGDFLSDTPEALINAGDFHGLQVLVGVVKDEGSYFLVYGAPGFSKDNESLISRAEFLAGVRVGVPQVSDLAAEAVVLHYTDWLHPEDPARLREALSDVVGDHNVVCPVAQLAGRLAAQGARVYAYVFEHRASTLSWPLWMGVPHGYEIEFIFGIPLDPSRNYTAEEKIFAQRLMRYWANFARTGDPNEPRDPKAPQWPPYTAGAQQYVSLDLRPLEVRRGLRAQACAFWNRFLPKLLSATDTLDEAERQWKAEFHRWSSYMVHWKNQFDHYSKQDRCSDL
T3 sequence (Q13224 whole entry, looked up, other chains not shown): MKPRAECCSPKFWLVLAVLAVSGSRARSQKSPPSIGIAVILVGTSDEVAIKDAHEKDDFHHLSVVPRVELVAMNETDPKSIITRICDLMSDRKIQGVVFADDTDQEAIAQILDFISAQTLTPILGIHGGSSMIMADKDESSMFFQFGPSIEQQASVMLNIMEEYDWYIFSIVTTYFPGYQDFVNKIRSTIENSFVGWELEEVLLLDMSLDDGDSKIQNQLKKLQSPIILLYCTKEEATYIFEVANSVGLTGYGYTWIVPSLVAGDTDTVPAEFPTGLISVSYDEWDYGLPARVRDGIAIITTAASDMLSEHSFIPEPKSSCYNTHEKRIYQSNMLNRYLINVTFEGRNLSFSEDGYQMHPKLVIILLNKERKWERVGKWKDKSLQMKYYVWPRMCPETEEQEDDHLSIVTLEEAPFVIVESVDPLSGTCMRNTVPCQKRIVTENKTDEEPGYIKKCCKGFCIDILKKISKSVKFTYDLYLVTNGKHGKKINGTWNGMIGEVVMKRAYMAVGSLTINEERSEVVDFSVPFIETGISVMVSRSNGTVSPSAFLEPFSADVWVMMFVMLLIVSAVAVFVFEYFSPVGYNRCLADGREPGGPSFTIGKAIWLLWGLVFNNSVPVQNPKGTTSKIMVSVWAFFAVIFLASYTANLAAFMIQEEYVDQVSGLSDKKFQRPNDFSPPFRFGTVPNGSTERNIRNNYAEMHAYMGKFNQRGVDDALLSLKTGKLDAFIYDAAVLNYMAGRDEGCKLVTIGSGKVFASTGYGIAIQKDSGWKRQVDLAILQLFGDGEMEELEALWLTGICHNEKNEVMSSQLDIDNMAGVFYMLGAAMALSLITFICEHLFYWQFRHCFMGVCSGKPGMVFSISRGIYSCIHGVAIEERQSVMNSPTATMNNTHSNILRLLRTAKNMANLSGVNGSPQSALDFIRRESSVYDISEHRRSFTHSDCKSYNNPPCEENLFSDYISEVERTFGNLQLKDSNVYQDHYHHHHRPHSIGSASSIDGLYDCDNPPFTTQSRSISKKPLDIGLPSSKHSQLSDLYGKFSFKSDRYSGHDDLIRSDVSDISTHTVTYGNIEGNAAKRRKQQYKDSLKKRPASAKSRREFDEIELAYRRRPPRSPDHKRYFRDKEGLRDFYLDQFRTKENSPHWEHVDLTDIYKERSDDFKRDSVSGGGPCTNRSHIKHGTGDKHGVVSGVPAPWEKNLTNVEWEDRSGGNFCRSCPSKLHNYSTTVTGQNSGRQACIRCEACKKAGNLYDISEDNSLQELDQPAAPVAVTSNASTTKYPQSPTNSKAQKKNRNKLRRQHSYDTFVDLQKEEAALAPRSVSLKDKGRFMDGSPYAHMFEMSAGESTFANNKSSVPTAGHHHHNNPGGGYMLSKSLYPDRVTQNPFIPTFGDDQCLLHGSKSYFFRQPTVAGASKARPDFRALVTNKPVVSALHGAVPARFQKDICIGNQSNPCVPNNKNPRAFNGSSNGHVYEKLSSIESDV
T2 sequence (P06276 whole entry): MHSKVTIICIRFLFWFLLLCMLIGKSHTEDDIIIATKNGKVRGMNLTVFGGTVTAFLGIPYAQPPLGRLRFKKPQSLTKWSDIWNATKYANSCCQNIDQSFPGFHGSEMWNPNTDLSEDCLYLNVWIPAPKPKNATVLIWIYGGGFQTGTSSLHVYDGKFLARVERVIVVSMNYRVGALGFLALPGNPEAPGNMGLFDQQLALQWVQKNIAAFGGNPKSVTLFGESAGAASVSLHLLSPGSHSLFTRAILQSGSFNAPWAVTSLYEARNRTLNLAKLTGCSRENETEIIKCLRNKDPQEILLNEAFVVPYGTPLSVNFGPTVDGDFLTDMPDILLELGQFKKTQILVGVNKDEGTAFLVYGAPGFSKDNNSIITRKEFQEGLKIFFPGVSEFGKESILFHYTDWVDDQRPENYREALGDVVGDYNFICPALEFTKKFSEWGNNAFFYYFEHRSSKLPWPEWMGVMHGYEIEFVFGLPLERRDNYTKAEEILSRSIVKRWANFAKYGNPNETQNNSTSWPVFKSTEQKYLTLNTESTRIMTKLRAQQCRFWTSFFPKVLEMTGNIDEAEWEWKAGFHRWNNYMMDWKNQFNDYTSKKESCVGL

SMILES | inhibition [1] [%] | IC50 [2] [µM] | IC50 [3] [µM] | IC50 [4] [µM] | IC50 [5] [µM] | Kp at 0.25 h [6] | concentration at 0.25 h [7] [µM] | Activity [8] | concentration at 0.25 h [9] [µM] | concentration at 1 h [10] [µM] | concentration at 1 h [11] [µM] | Activity [12] | Activity [13] | IC50 [14] [µM] | IC50 [15] [µM] | Activity [16] | Activity [17] | inhibition [18] [%] | Activity [19]
Nc1c2c(nc3c(Br)cc(Br)cc13)CCCC2 | 67.7 | 5.18 | 32 | 15.6 | 18.7 |  |  |  |  |  |  |  |  |  |  |  |  |  | 
Cl.Nc1c2c(nc3ccc(Br)cc13)CCC2 | 75.3 | 5.69 | 16.9 | 6.12 | 6.9 | 47 | 2.52 | Non-Toxic | 1.18 | 0.154 | 0.116 | inactive | Active | 51.3 | 23 |  |  |  | 
Cl.Nc1c2c(nc3ccc(Br)cc13)CCCC2 | 79.3 | 4.79 | 20.8 | 6.58 | 7.8 | 103 | 1.33 | Non-Toxic | 1.38 | 0.17 | 0.218 | inactive | Active | 45.9 | 12.8 |  |  |  | 
Cc1ccc2c(N)c3c(nc2c1)CCCCC3 | 50 | 0.104 | 1 | 15.2 | 9.29 |  |  |  |  |  |  |  |  |  |  |  |  |  | 
Nc1c2c(nc3c(Cl)cc(Cl)cc13)CCC2 | 33.5 | 13.1 | 17.9 | 14.6 | 21.4 |  |  |  |  |  |  |  |  |  |  |  |  |  | 
Nc1c2c(nc3ccc(Cl)cc13)CCCCC2 | 43 | 8.6 | 10.3 | 20.2 | 12 |  |  |  |  |  |  |  |  |  |  |  |  |  | 
Cl.Nc1c2c(nc3cccc(Cl)c13)CCCCC2 | 46.7 | 223 | 0.311 | 7.29 | 22.1 | 33 | 2.29 | Non-Toxic | 0.762 | 0.185 | 0.032 | inactive | Active | 112 | 146 | inactive | Toxic |  | 
Nc1c2c(nc3cccc(Cl)c13)CCCC2 | 35 | 0.0334 | 0.062 | 19.6 | 23.7 |  |  |  |  |  |  |  |  |  |  |  |  |  | 
Cc1ccc2nc3c(c(N)c2c1)CCC3 | 30.8 | 10 | 23.7 | 20.5 | 19.8 |  |  |  |  |  |  |  |  |  |  |  |  |  | 
Cc1ccc2c(N)c3c(nc2c1)CCC3 | 53.6 | 0.347 | 8.44 | 7.68 | 15.6 |  |  |  |  |  |  |  |  |  |  |  |  |  | 
Nc1c2c(nc3ccc(Cl)cc13)CCCC2 | 47.5 | 1.94 | 6.72 | 14.8 | 9.82 |  |  |  |  |  |  |  |  |  |  |  |  |  | 
Nc1c2c(nc3ccc(F)cc13)CCC2 | 28.7 | 0.662 | 1.91 | 28 | 30.3 |  |  |  |  |  |  |  |  |  |  |  |  |  | 
COc1ccc2nc3c(c(N)c2c1)CCC3 | 66.1 | 8.22 | 10.6 | 4.16 | 14.6 |  |  |  |  |  |  |  |  | 66.8 | 88.9 |  |  |  | 
Cc1ccc2c(N)c3c(nc2c1)CCCC3.Cl | 51.3 | 0.072 | 2.9 | 17 | 7.83 | 56 | 1.3 | Non-Toxic | 0.731 | 0.087 | 0.251 | inactive | Active | 98.6 | 41.8 |  |  |  | 
COc1ccc2nc3c(c(N)c2c1)CCCC3.Cl | 77.6 |  |  | 4.7 | 7.24 |  | 1.67 |  | 2.31 | 0.207 | 0.326 |  |  | 49.3 | 51 |  |  |  | 
Cc1cccc2nc3c(c(N)c12)CCC3 | 22 | 0.415 | 0.471 | 21.3 | 16.6 |  |  |  |  |  |  |  |  |  |  |  |  |  | 

SMILES | inhibition [1] [%] | IC50 [2] [µM] | IC50 [3] [µM] | IC50 [4] [µM] | IC50 [5] [µM] | Kp at 0.25 h [6] | concentration at 0.25 h [7] [µM] | Activity [8] | concentration at 0.25 h [9] [µM] | concentration at 1 h [10] [µM] | concentration at 1 h [11] [µM] | Activity [12] | Activity [13] | IC50 [14] [µM] | IC50 [15] [µM] | Activity [16] | Activity [17] | inhibition [18] [%] | Activity [19]
Nc1c2c(nc3c(Cl)cc(Cl)cc13)CCCC2 | 38.2 | 4.34 | 14.8 | 24 | 37.1 |  |  |  |  |  |  |  |  |  |  |  |  |  | 
Cc1cccc2nc3c(c(N)c12)CCCC3 | 40.5 | 0.125 | 0.495 | 18.5 | 14.2 |  |  |  |  |  |  |  |  |  |  |  |  |  | 
Nc1c2c(nc3ccc(F)cc13)CCCC2 | 41.9 | 0.978 | 0.751 | 15.4 | 21.3 |  |  |  |  |  |  |  |  |  |  |  |  |  | 
Nc1c2c(nc3c(Cl)cc(Cl)cc13)CCCCC2 | 38.5 | 9.04 | 23.8 | 20 | 37.9 |  |  |  |  |  |  |  |  |  |  |  |  |  | 
Cc1ccc2nc3c(c(N)c2c1)CCCCC3 | 40.1 | 22.5 | 10.6 | 27.1 | 16.6 |  |  |  |  |  |  |  |  |  |  |  |  |  | 
Nc1c2c(nc3c(Br)cc(Br)cc13)CCC2 | 55.7 | 15.1 |  | 10.2 | 17.1 |  |  |  |  |  |  |  |  |  |  |  |  | 34 | 
COc1ccc2nc3c(c(N)c2c1)CCCCC3 | 53.6 | 17.6 | 4.41 | 20 | 7.67 |  |  |  |  |  |  |  |  |  |  |  |  |  | 
Nc1c2c(nc3c(Br)cc(Br)cc13)CCCCC2 | 80.7 | 15.1 | 89.9 | 21.5 | 26.9 |  |  |  |  |  |  |  |  |  |  |  |  |  | 
Nc1c2c(nc3ccc(F)cc13)CCCCC2 | 38.5 | 0.624 | 0.569 | 14.5 | 19.8 |  |  |  |  |  |  |  |  |  |  |  |  |  | 
Cc1ccc2nc3c(c(N)c2c1)CCCC3 | 18.5 | 15.5 | 13.7 | 12.3 | 13.2 |  |  |  |  |  |  |  |  |  |  |  |  |  | 
C[C@]12N[C@H](Cc3ccccc31)c1ccccc12 [DIZOCILPINE] |  |  |  |  |  |  |  |  |  |  |  |  |  |  |  |  |  |  | Toxic
Cl.Nc1c2c(nc3ccc(Cl)cc13)CCC2 | 56.5 | 1.58 | 6.88 | 21 | 8.69 | 61 | 1.66 | Non-Toxic | 1 | 0.389 | 0.173 | inactive | Active | 84.2 | 27.7 |  |  |  | 
Nc1c2c(nc3cccc(Cl)c13)CCC2 | 24.5 |  |  | 27 | 44.9 |  |  |  |  |  |  |  |  |  |  |  |  | 6 | 
Nc1c2c(nc3ccc(Br)cc13)CCCCC2 | 57.7 | 13.8 | 15.1 | 13.8 | 11.8 |  |  |  |  |  |  |  |  |  |  |  |  |  | 
Cc1cccc2nc3c(c(N)c12)CCCCC3 | 54.3 | 0.255 | 0.107 | 12.6 | 17.4 |  |  |  |  |  |  |  |  |  |  |  |  |  | 
